Data published in patent US20120003186A1, “METHOD FOR DEDIFFERENTIATING ADIPOSE TISSUE STROMAL CELLS” (SNU R&DB FOUNDATION, priority 2010, published 2012).

Assays:
Type in all cases: cell-based, human
dedifferentiated ATSC [1] = assay: Western blotting of growth-related signal proteins with inhibitor treatment; details: FIG. 9a
Description: The inventors conducted following experiment to confirm the expression pattern of growth-related signal protein and Rex-1 in ATSC treated with hypoxia/DHP-derivative. To be specific, the expression of P-Jak2 (Phosphorylated-Janus kinase 2) and P-Stat3 (Phosphorylated-signal transducer and activator of transcription3) was observed by Western blotting using anti-P-Jak2 antibody and anti-P-Stat3 antibody in the same manner explained above in Examples 2 and 3 in cells of control group not treated with AG490 (Jak2 inhibitor, Sigma) and in cells of experimental group not treated with AG490 or treated with 20 μM or 30 μM. The expression of p-STAT3 and STAT3 was observed by Western blotting using anti-p-STAT3 antibody and anti-Stat3 antibody in the same manner of the Examples 2 and 3 in a control group not treated with AG490 and experimental group treated with hypoxia/DHP-derivative for 6 hours and then treated or not treated with AG490. The expression of p-MEK (Phosphorylated-Mitogen-activated Protein/ERK Kinase), MEK, p-ERK (Phosphorylated-Extracellular signal-regulated kinases), ERK, C-myc, p-STAT3 and STAT3 proteins was observed by Western blotting in the same manner of the Examples 2 and 3 in control group not treated with PD98059 (MEX inhibitor, Sigma) and experimental group treated with hypoxia/DHP-derivative for 6 hours and then treated or not treated with PD98059. The expression of p-P38, P38, P53 and P21 protein was observed by Western blotting in the same manner of Examples 2 and 3 in control group not treated with SB203580 (P38MAPK inhibitor, Sigma) and experimental group treated with hypoxia/DHP-derivative for 6 hours and then treated or not treated with SB203580. The antibodies to each protein were purchased from Santa Cruz. The result is illustrated in FIG. 9a.

dedifferentiated ATSC [2] = assay: Real time PCR of stemness and proliferation genes with inhibitor treatment; details: FIG. 9b; for expression of Oct-4 / expression of REX1, SOX2, CDk1 and CDk2: dedifferentiated ATSC treated with inhibitor
Procedure: The expression of Rex1, CDk1 and Runx3 genes were observed by real time PCR in the same manner of the Examples 2 and 3 in cells of control group not treated with AG490 and cells of experimental group not treated with AG490 or treated with 20 μM or 30 μM. As for a quantitative control group, the expression of GAPDH (glyceraldehyde-3-phosphate dehydrogenase) was also observed.
Expressions of REX1, Oct-4, SOX2, CDk1 and CDk2 were observed by real time PCR in the same manner of Examples 2 and 3 in each of the following cases. ATSC were treated with hypoxia/DPH-derivative for 6 hours and then divided into cases including: i) sample treated with nothing; ii) sample treated with SB203580 only; iii) sample treated with PD98059 only; and iv) sample treated with SB203580 and PD98059. As for a quantitative control group, the expression of GAPDH was also confirmed. The result is illustrated in FIG. 9b.

dedifferentiated ATSC [3] = assay: Colony formation with inhibitor treatment; details: dedifferentiated ATSC vs non-treated experimental group; similar to control group; FIG. 10
Procedure: The inventors conducted following experiment to confirm the actual growth of ATSC treated with hypoxia/DHP-derivative by the activity of Rex-1 and growth-related signal protein which was confirmed at Example 7-1. To be specific, cells of control group and cells of experimental group treated with HPD98059, SB203580 or AG490, or not treated were prepared, and measured for colony formation. The result is illustrated in FIG. 10.

dedifferentiated ATSC [4] = assay: Cell migration with signal transmission inhibitors; details: dedifferentiated ATSC treated with inhibitor; FIG. 15
Procedure: In the developmental procedures, cell migration is considered to be critical for normal development. Accordingly, the inventors conducted experiment as explained below to confirm the in vitro migration activity of dedifferentiated ATSC. First, experimental group was cultured in a culture medium containing control cell group and DHP-derivative under hypoxia condition for 30 minutes or 6 hours and then cultured in low serum growth medium. The cultured cells were moved onto 6-transwell plate (8 μm pore size; Costar, U.S.A) coated with laminin (Chemicon, U.S.A). The respective cells were divided on an upper layer chamber, and cultured under 37° C., 5% carbon dioxide condition for 48 hours, during which the cells were left to migrate from the upper layer chamber to the lower layer chamber. The remaining, non-migrated cells were removed from the surface of the upper layer chamber and the migrated cells in the lower layer chamber were stained with Harris hematoxylin (Sigma Aldrich, U.S.A). Cells were counted from 20-selected areas for the respective cells.
The inventors conducted experiment to confirm the signal pathway that influences the in vitro migration of ATSC which were treated with hypoxia/DHP-derivative.

[5] = vs sample not treated with inhibitor

Row | SMILES | expression of P-Jak2 and P-Stat3 (dedifferentiated ATSC [1]; higher concentration of AG490 (20 μM or 30 μM)) | expression of Rex′1, CDK1, CDK2, Nanog and Runx3 (dedifferentiated ATSC [2]; dedifferentiated ATSC, higher concentration of AG490) | cell proliferation (colony formation) (dedifferentiated ATSC [3]) | expression of C-myc (dedifferentiated ATSC [1]; [5]) | phosphorylation of MEK (dedifferentiated ATSC [1]; [5]) | cell migration (dedifferentiated ATSC [4]) | expression of Oct-4 (dedifferentiated ATSC [2]) | expression of REX1, SOX2, CDk1 and CDk2 (dedifferentiated ATSC [2]) | expression of P53 and P21 (dedifferentiated ATSC [1]; [5]) | phosphorylation of P38 (dedifferentiated ATSC [1]; [5])
1 | N#C/C(=C/c1ccc(O)c(O)c1)C(=O)NCc1ccccc1 [AG490] | decreased expression | decreased expression | decreased cell proliferation |  |  |  |  |  |  | 
2 | COc1cccc(-c2cc(=O)c3ccccc3o2)c1N [PD98059] |  |  | decreased cell proliferation | decreased expression | increased phosphorylation | noticeably decreased | not changed | decreased |  | 
3 | C[S+]([O-])c1ccc(-c2nc(-c3ccncc3)c(-c3ccc(F)cc3)[nH]2)cc1 (stereo not drawn) [SB203580] |  |  | decreased cell proliferation |  |  | noticeably decreased | not changed | decreased | increased expression | decreased phosphorylation
